Usually melting point stands for the temperature, or range, at which the solid turns liquid.

SMILES strings stand for the structures. Like-named read-outs stand apart in the source and are kept apart here.

This note sets out measurements from patent US7250440B2, “(Hydroxyphenyl)-1H-indole-3-carbaldehyde oxime derivatives as estrogenic agents” (Wyeth, priority 2003, dated 2007).

In data set [1] the target is T1, human ERβ (Homo sapiens, UniProt Q92731).
T1 construct: made in house; host or cells: E. coli
T1 sequence (Q92731 264-498 limits assumed): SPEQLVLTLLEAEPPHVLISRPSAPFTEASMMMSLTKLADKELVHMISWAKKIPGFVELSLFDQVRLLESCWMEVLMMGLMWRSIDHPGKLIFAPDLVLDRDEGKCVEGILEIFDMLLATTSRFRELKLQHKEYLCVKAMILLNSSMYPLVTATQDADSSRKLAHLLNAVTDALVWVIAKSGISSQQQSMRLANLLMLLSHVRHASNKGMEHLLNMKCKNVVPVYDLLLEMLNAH
In words: Competition with [3H]-17β-estradiol for binding to the ERβ ligand binding domain. As to the method: (§1) Representative examples of the invention were evaluated for their ability to compete with 17β-estradiol for both ERα and ERβ. This test procedure provides the methodology for one to determine whether a particular compound binds to the estrogen receptor (and is therefore “estrogenic”) and whether there is selectivity for ERα or ERβ. […] 17β-estradiol is included as a standard reference for comparison. The procedure used is briefly described below. A crude lysate of E. coli expressing the estrogen receptor ligand binding domains D, E, & F) of human ERα or ERβ was prepared. Both receptors and compounds were diluted in 1× Dulbecco's PBS (DPBS) supplemented with 1 mM EDTA. Using a high binding masked microtiter plate, 100 uL of receptor (1 uG/well) was combined with 2 nM [^3H]-17β-estradiol and various concentrations of compound. After between 5 and 15 hours at room temperature, the plates were washed with DPBS/1 mM EDTA and bound radioactivity determined by liquid scintillation counting.

Data set [2] addresses T2, human ERα (Homo sapiens, UniProt P03372).
T2 construct: made in house; host or cells: E. coli
T2 sequence (P03372 311-547 limits assumed): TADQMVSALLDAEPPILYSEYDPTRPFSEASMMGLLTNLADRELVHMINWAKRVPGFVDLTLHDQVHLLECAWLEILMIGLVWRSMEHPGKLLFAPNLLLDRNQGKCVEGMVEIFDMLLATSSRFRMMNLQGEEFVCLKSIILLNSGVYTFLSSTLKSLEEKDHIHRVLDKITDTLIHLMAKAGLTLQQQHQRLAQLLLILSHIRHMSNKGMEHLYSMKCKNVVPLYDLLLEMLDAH
In words: Competition with [3H]-17β-estradiol for binding to the ERα ligand binding domain. The following applies: crude E. coli lysate expressing human ERα ligand binding domain; 2 nM [3H]-17β-estradiol; 5-15 hours at room temperature. Here is the method: as §1

For `Cc1c(/C=N/O)c2cc(Br)ccc2n1-c1ccc(O)cc1` [Example 7, 5-Bromo-1-(4-hydroxyphenyl)-2-methyl-1H-indole-3-carbaldehyde oxime], the melting point lay within 209 to 211 °C. In data set [1], this molecule yielded an IC50 of 0.0935 µM. In data set [2], this molecule had an IC50 of 0.235 µM.

`O/N=C1\CCCc2c1c1ccccc1n2-c1ccc(O)cc1` [Example 8, (4E)-9-(4-Hydroxyphenyl)-1,2,3,9-tetrahydro-4H-carbazol-4-one oxime] displayed a melting point of 227 to 229 °C. In data set [1], the IC50 amounted to 0.01 µM. Besides, the IC50 in data set [2] was determined as 0.153 µM.

The molecule `Cc1c(/C=N/O)c2cc(F)ccc2n1-c1ccc(O)cc1` [Example 5, 5-Fluoro-1-(4-hydroxyphenyl)-2-methyl-1H-indole-3-carbaldehyde oxime] came in with a melting point of 162 to 163 °C. Further, the IC50 in data set [1] is 0.0062 µM. The IC50 in data set [2] was 0.091 µM.

`Cc1c(/C=N/O)c2cc(Cl)ccc2n1-c1ccc(O)cc1` [Example 6, 5-Chloro-1-(4-hydroxyphenyl)-2-methyl-1H-indole-3-carbaldehyde oxime] gave a melting point of 212 to 213 °C. In data set [1], the IC50 is 0.029 µM. The same molecule displayed an IC50 in data set [2] of 0.145 µM.

Molecule `Cc1c(/C=N/O)c2ccccc2n1-c1ccc(O)cc1` [Example 4, 1-(4-Hydroxyphenyl)-2-methyl-1H-indole-3-carbaldehyde oxime] registered a melting point of 171 to 173 °C.

Regarding `Cc1c(/C=N/O)c2ccccc2n1-c1ccc(O)c(F)c1` [Example 10, 1-(3-Fluoro-4-hydroxyphenyl)-2-methyl-1H-indole-3-carbaldehyde oxime], the melting point was 182 to 184 °C. The IC50 in data set [1] (crude E. coli lysate expressing human ERβ ligand binding domain, 2 nM [3H]-17β-estradiol, 5-15 hours at room temperature, read-out: ERβ) was 0.008 µM.

`O/N=C/c1cn(-c2ccc(O)cc2)c2ccccc12` [Example 9, 1-(4-Hydroxyphenyl)-1H-indole-3-carbaldehyde oxime]: the melting point lay in the range of 95 to 97 °C.
